Each structure is given as a SMILES string. Where only a bound is given, the exact number is not on record here.

T1 sequence (P35408 whole entry): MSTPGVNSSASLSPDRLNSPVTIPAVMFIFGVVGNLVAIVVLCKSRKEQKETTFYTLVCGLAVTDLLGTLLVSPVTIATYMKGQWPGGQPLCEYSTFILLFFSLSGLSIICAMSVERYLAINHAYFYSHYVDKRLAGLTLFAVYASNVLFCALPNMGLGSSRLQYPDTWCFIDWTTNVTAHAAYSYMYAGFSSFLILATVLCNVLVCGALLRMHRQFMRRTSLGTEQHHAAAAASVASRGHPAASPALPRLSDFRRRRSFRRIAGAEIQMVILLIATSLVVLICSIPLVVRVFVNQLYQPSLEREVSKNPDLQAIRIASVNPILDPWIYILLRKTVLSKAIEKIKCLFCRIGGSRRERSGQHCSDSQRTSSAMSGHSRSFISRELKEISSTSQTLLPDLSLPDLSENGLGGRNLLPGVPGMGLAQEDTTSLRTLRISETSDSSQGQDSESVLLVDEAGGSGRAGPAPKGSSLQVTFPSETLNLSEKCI

The first experiment has as its target T1, human EP4 receptor (Homo sapiens, UniProt P35408). The experiment in a line: Human EP4 Scintillation Proximity Assay (radioligand binding). Also noted: expressed in transfected cells; host or cells: CHO cells infected with Semliki Forest Virus (SFV-1) particles; membranes prepared. The conditions noted are these: membranes of CHO cells expressing human EP4; 1.25 nM [3H]-prostaglandin E2; Cheng-Prusoff; read-out: pKi at EP4 receptors (converted). As to the method:
Quantification of radioligand binding by scintillation proximity assay (SPA) is a long-established principle. Briefly, the affinity of compounds for a receptor is assessed by the specific competition between known quantities of radiolabelled ligand compound for that receptor. Increasing concentrations of compound reduce the amount of radiolabel that binds to the receptor. This gives rise to a diminishing scintillation signal from SPA beads coated with membranes that bear the receptor. The signal may be detected with a suitable scintillation counter and the data generated may be analysed with suitable curve-fitting software.
The human EP4 SPA assay (hereafter referred to as ‘the assay’) utilises membranes prepared from Chinese Hamster Ovary (CHO cells) infected with Semliki Forest Virus (SFV). Genetically engineered SFV-1 viral particles containing the genetic sequence of the human EP4 receptor were used to infect CHO cells resulting in expression of th receptor protein in cellular membranes.
Cells washed free of media are homogenised in a pH-buffered medium containing peptidase inhibitors. A suitable buffer is of the following composition: 50 mM HEPES, 1 mM EDTA, 25 μg/ml bacitracin, 100 μM leupeptin, 1 mM PMSF, 2 μM Pepstatin A, pH adjusted to 7.4 with KOH. Following removal of cell debris by a low-speed centrifugation, a pellet of membranes is prepared by a high-speed (48000 g) centrifugation of the resulting supernatant. Membrane suspensions such as that described may be stored at −80° C. until used.
For assay, membranes expressing human EP4 receptors are diluted in a pH-buffered medium and mixed with SPA beads coated with a suitable substance to facilitate the adhesion of membranes to the beads. The concentrations of membrane protein and SPA beads chosen should result in SPA binding signal of at least 300 corrected counts per minute (CCPM) when tritiated radioligand at a concentration close to its Kd (affinity value) is combined with the mixture. Non-specific binding (nsb) may be determined by competition between the radiolabelled ligand and a saturating concentration of unlabelled ligand. In order to quantify the affinity of EP4 receptor ligands, compounds are diluted in a stepwise manner across the wells of a 96-well plate. Radioligand, compound, and unlabelled ligand are then added to a 96-well plate suitable for the measurement of SPA binding signals prior to the addition of bead/membrane mixture to initiate the binding reaction. Equilibrium may be achieved by incubation at room temperature for 120 minutes prior to scintillation counting. The data so generated may be analysed by means of a computerised curve-fitting routine in order to quantify the concentration of compound that displaces 50% of the specific radioligand binding (IC50). The affinity (pKi) of the compound may be calculated from the IC50 by application of the Cheng-Prusoff correction. Suitable reagents and protocols are: reaction buffer containing 50 mM HEPES, 10 mM MgCl2, pH adjusted to 7.4 with KOH; SPA beads coated with wheatgerm agglutinin; 1.25 nM [^3H]-prostaglandin E2 as radioligand; 10 μM prostaglandin E2 as unlabelled ligand; a three-fold dilution series of compound starting at 10 μM and ending at 0.3 nM is adequate.
(In general: Scintillation proximity formats need no separation of bound from free tracer.)
As for `Cc1ccc(C(=O)O)c(NC(=O)Cc2c(-c3ccccc3)[nH]c3ccccc23)c1` [Example 9, 4-methyl-2-{[(2-phenyl-1H-indol-3-yl)acetyl]amino}benzoic acid], the Ki is at most 100 nM.

For `COc1ccc2[nH]c(C)c(CC(=O)Nc3cc(C)ccc3C(=O)O)c2c1` [Example 1, 2-{[(5-methoxy-2-methyl-1H-indol-3-yl)acetyl]amino}-4-methylbenzoic acid], the Ki is at most 100 nM.

With `COc1ccc2[nH]c(C)c(CC(=O)Nc3cc([N+](=O)[O-])ccc3C(=O)O)c2c1` [Example 12, 2-{[(5-methoxy-2-methyl-1H-indol-3-yl)acetyl]amino}-4-nitrobenzoic acid], the Ki was at most 100 nM.

Take `COc1ccc2[nH]c(C)c(CC(=O)Nc3cc(F)ccc3C(=O)O)c2c1` [Example 10, 4-fluoro-2-{[(5-methoxy-2-methyl-1H-indol-3-yl)acetyl]amino}benzoic acid]: the Ki is at most 100 nM.

On to `CCc1ccc(C(=O)O)c(NC(=O)Cc2c(C)[nH]c3ccc(OC)cc23)c1` [Example 26, 4-ethyl-2-{[(5-methoxy-2-methyl-1H-indol-3-yl)acetyl]amino}benzoic acid], for which the Ki was at most 100 nM.

Regarding `COc1ccc2[nH]cc(CC(=O)Nc3cc(C)ccc3C(=O)O)c2c1` [Example 7, 2-{[(5-methoxy-1H-indol-3-yl)acetyl]amino}-4-methylbenzoic acid], the Ki was at most 100 nM.

Take `COc1cc2[nH]c(C)c(CC(=O)Nc3cc(C)ccc3C(=O)O)c2cc1OC` [Example 20, 2-{[(5,6-dimethoxy-2-methyl-1H-indol-3-yl)acetyl]amino}-4-methylbenzoic acid]: the Ki was at most 100 nM.

In the case of `COc1ccc2[nH]c(C)c(CC(=O)Nc3cc(Cl)ccc3C(=O)O)c2c1` [Example 11, 4-chloro-2-{[(5-methoxy-2-methyl-1H-indol-3-yl)acetyl]amino}benzoic acid], the Ki was at most 100 nM.

For `Cc1ccc(C(=O)O)c(NC(=O)Cc2c[nH]c3ccc(Br)cc23)c1` [Example 6, 2-{[(5-bromo-1H-indol-3-yl)acetyl]amino}-4-methylbenzoic acid], the Ki was at most 100 nM.

With `Cc1ccc(C(=O)O)c(NC(=O)Cc2c[nH]c3ccccc23)c1` [Example 2, 2-[(1H-indol-3-ylacetyl)amino]-4-methylbenzoic acid], the Ki was at most 100 nM.

On to `COc1ccc2[nH]c(C)c(CC(=O)Nc3ccccc3C(=O)O)c2c1` [Example 13, 2-{[(5-methoxy-2-methyl-1H-indol-3-yl)acetyl]amino}benzoic acid], for which the Ki is at most 100 nM.

In the case of `Cc1ccc(C(=O)O)c(NC(=O)Cc2c(C)[nH]c3ccccc23)c1` [Example 3, 4-methyl-2-{[(2-methyl-1H-indol-3-yl)acetyl]amino}benzoic acid], the Ki was at most 100 nM.

As to `Cc1ccc(C(=O)O)c(NC(=O)Cc2c(C)[nH]c3ccc(Cl)cc23)c1` [Example 21, 2-{[(5-chloro-2-methyl-1H-indol-3-yl)acetyl]amino}-4-methylbenzoic acid], the Ki is at most 100 nM.

`COc1ccc2[nH]c(C)c(CC(=O)Nc3cc(C(F)(F)F)ccc3C(=O)O)c2c1` [Example 17, 2-{[(5-methoxy-2-methyl-1H-indol-3-yl)acetyl]amino}-4-(trifluoromethyl)benzoic acid]: the Ki was at most 100 nM.

As to `Cc1ccc(C(=O)O)c(NC(=O)Cc2c[nH]c3ccc(F)cc23)c1` [Example 4, 2-{[(5-fluoro-1H-indol-3-yl)acetyl]amino}-4-methylbenzoic acid], the Ki is at most 100 nM.

The next experiment addresses T1, human EP4 receptor. Nature of the experiment: [125I]cAMP Scintillation Proximity Assay (cAMP assay), EP4 antagonism. Type of experiment: cell-based. Further details: host or cells: HEK-293 cells. Particulars: HEK-293 cells expressing recombinant human EP4; method of Arunlakshana and Schild; read-out: pKb at EP4 receptors (converted). The protocol: The cAMP assay utilises HEK-293 cells expressing the recombinant human EP4 receptor, obtained from Receptor Biology, Inc. Beltsville, Md., USA. The cells were cultured in Dulbecco's Modified Eagle Medium—HAM F12 mix (DMEM-F12), containing 10% heat inactivated-foetal bovine serum (FBS) and 2 mM L-glutamine. The cells were either passaged into fresh medium or used in an assay once 90% confluency as determined visually had been achieved.
The cells were harvested by treatment with Versene, re-suspended in fresh culture medium and plated out to yield approximately 10,000 cells per well of a 96-well plate for overnight culture in culture medium additionally supplemented with 3 μM indomethacin. For assay, the culture medium was replaced with assay medium (DMEM-F12 containing 300 μM isobutylmethylxanthine (IBMX) and 3 μM indomethacin) and incubated for 30 minutes. Following this, antagonist was then added at various concentrations such that an entire agonist concentration-effect curve could be obtained in the presence of a single concentration of the antagonist. […] The amount of cAMP in each well was then determined by [^125I]cAMP scintillation proximity assay using a proprietary kit, obtained from Amersham, Buckinghamshire, UK, and according to the manufacturer's instructions.
Data from cAMP assays were expressed as pmol cAMP per well. […]
For `COc1ccc2[nH]c(C)c(CC(=O)Nc3cc(C)ccc3C(=O)O)c2c1` [Example 1, 2-{[(5-methoxy-2-methyl-1H-indol-3-yl)acetyl]amino}-4-methylbenzoic acid], the Kb is below 10 nM.

Values taken from patent US7288564B2, “Indole derivatives” (Glaxo Group Limited, priority 2000, dated 2007).
